Experimental findings from patent US5968801A, “Polyhydroxyalkanoate depolymerase and process for producing the same” (Taisei Corporation, priority 1997, dated 1999) are described below.

This assay has as its target PHA depolymerase. The assay is classed as biochemical, Corynebacterium aquaticum IM-1. The following applies: pH 6.5; read-out: IC50 (concentration of inhibitor at which the enzyme activity was inhibited by 50%).

For `O[C@H](CS)[C@H](O)CS` (racemic) [DTT, dithiothreitol], the IC50 turned out to be 73 mM. To `O=S(=O)(F)Cc1ccccc1` [PMSF, Phenylmethylsulfonyl fluoride] belongs 1.92 mM.
